# Literature values, collected in patent publication US20150030707A1, “Rhus Coriaria L. Extract For Use In The Treatment Of Hyperhidrosis” (BIOMEDICAL RESEARCH S.R.L., priority 2012, published 2015).
# Conditions: in vivo
substance,measurement,value
botulinum toxin,duration of efficacy of the injections,5-6 months
